Laboratory results: the supplement of paper PMC10307832

What was measured:
Test in all cases: relative viability (nuclei count vs DMSO), 5 days (fraction); higher = more cells survive
Bortezomib + Palbociclib = compound: CC(C)C[C@H](NC(=O)[C@H](Cc1ccccc1)NC(=O)c1cnccn1)B(O)O [Bortezomib] + CC(=O)c1c(C)c2cnc(Nc3ccc(N4CCNCC4)cn3)nc2n(C2CCCC2)c1=O [Palbociclib] (partner 0.5 µM)
In short: (§1)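 Values are medians from duplicate plates. Each reflects relative viability, defined as the nuclei count of treated wells over that of vehicle wells. Lung cancer cell lines in 1536-well plates were pin-tool dosed one day after seeding with one drug alone or with a fixed anchor-drug dose plus five library-drug doses (not always all listed) in √10 steps, then fixed, stained and imaged at 4× after 5 days.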

Bortezomib + Vorinostat = compound: CC(C)C[C@H](NC(=O)[C@H](Cc1ccccc1)NC(=O)c1cnccn1)B(O)O [Bortezomib] + O=C(CCCCCCC(=O)Nc1ccccc1)NO [Vorinostat] (partner 1 µM)
In short: as §1

[1] = compound: CC1=CC(=NN1)NC2=CC(=NC(=N2)/C=C/C3=CC=CC=C3)N4CCN(CC4)C + COc1cccc2cc(-c3nc([C@H]4CC[C@H](C(=O)O)CC4)n4ncnc(N)c34)[nH]c12 [OSI-027] (partner 0.5 µM)
In short: as §1

Obatoclax + Linsitinib = compound: COC1=CC(c2cc3ccccc3[nH]2)=N/C1=C\c1[nH]c(C)cc1C [Obatoclax] + C[C@]1(O)C[C@@H](c2nc(-c3ccc4ccc(-c5ccccc5)nc4c3)c3c(N)nccn32)C1 [Linsitinib] (partner 1 µM)
In short: as §1

| Cell Line | relative viability (Bortezomib + Palbociclib; first compound 0.0002 µM) | relative viability (Bortezomib + Palbociclib; first compound 0.000632 µM) | relative viability (Bortezomib + Palbociclib; first compound 0.002 µM) | relative viability (Bortezomib + Palbociclib; first compound 0.006325 µM) | relative viability (Bortezomib + Palbociclib; first compound 0.02 µM) | relative viability (Bortezomib + Vorinostat; first compound 0.0002 µM) | relative viability (Bortezomib + Vorinostat; first compound 0.000632 µM) | relative viability (Bortezomib + Vorinostat; first compound 0.002 µM) | relative viability (Bortezomib + Vorinostat; first compound 0.006325 µM) | relative viability (Bortezomib + Vorinostat; first compound 0.02 µM) | relative viability ([1]; first compound 0.08 µM) | relative viability ([1]; first compound 0.253 µM) | relative viability ([1]; first compound 0.8 µM) | relative viability ([1]; first compound 2.53 µM) | relative viability ([1]; first compound 8 µM) | relative viability (Obatoclax + Linsitinib; first compound 0.01 µM) | relative viability (Obatoclax + Linsitinib; first compound 0.03162 µM) | relative viability (Obatoclax + Linsitinib; first compound 0.1 µM) | relative viability (Obatoclax + Linsitinib; first compound 0.3162 µM) | relative viability (Obatoclax + Linsitinib; first compound 1 µM) |
| --- | --- | --- | --- | --- | --- | --- | --- | --- | --- | --- | --- | --- | --- | --- | --- | --- | --- | --- | --- | --- |
| PC-3 [JPC-3] | 0.521 | 0.583 | 0.413 | 0.285 | 0.227 | 0.675 | 0.82 | 0.444 | 0.22 | 0.203 | 0.766 | 0.683 | 0.83 | 0.67 | 0.59 | 0.947 | 0.936 | 0.963 | 0.989 | 0.898 |
| PC-14 | 0.53 | 0.506 | 0.412 | 0.045 | 0.052 | 0.778 | 0.717 | 0.365 | 0.0298 | 0.0377 | 0.856 | 0.825 | 0.802 | 0.0598 | 0.0365 | 0.911 | 1.01 | 0.892 | 0.902 | 0.58 |
| RERF-LC-KJ | 1.18 | 1.03 | 1.05 | 0.224 | 0.19 | 0.661 | 0.726 | 0.624 | 0.463 | 0.219 | 0.532 | 0.656 | 0.53 | 0.238 | 0.179 | 0.884 | 0.947 | 0.871 | 0.868 | 0.808 |
| SK-LU-1 | 0.387 | 0.361 | 0.359 | 0.279 | 0.158 | 0.733 | 0.84 | 0.314 | 0.178 | 0.186 | 0.367 | 0.299 | 0.376 | 0.119 | 0.0636 | 1.18 | 1.17 | 0.834 | 0.496 | 0.419 |
| SK-MES-1 | 0.317 | 0.321 | 0.296 | 0.159 | 0.179 | 1.08 | 1.1 | 1 | 0.164 | 0.158 | 0.604 | 0.617 | 0.524 | 0.139 | 0.103 | 0.991 | 1.1 | 1.09 | 0.98 | 0.687 |
| SW 1573 | 0.346 | 0.419 | 0.171 | 0.055 | 0.0399 | 0.676 | 1.02 | 0.313 | 0.0435 | 0.0242 | 0.549 | 0.511 | 0.569 | 0.0922 | 0.0676 | 0.768 | 0.832 | 0.803 | 0.801 | 0.81 |
| UMC-11 | 0.3 | 0.334 | 0.294 | 0.295 | 0.214 | 0.365 | 0.399 | 0.41 | 0.112 | 0.0837 | 0.494 | 0.458 | 0.339 | 0.141 | 0.133 | 1.04 | 0.875 | 0.981 | 0.81 | 0.885 |
